These results are taken from ChEMBL document CHEMBL4000233, “Synthesis and evaluation of 5-(1H-indol-3-yl)-N-aryl-1,3,4-oxadiazol-2-amines as Bcl-2 inhibitory anticancer agents” (Bioorg Med Chem Lett, 2017).

In general, IC50 refers to the concentration at which inhibition is half-maximal.

Assay [1] has as its target Apoptosis regulator Bcl-2 (Homo sapiens, UniProt P10415). The assay is described as follows: Inhibition of biotinylated Bim peptide binding to His-tagged Bcl-2 (unknown origin) preincubated for 1 hr followed by biotinylated Bim peptide addition measured after 2 hrs by ELISA.
Another assay concerns MDA-MB-231. Description: Cytotoxicity against human MDA-MB-231 cells assessed as growth inhibition after 72 hrs by MTT assay. Format: functional, cell-based. As to conditions: MDA-MB-231, 72 h. Background: Tetrazolium assays rely on reduction of a dye to a coloured formazan, in cell work by metabolically active cells.
The next assay deals with Jurkat. The assay is described as follows: Cytotoxicity against human Jurkat cells assessed as growth inhibition after 24 hrs by CellTiter Blue assay. Format: functional, cell-based.
The next assay relates to KG-1a. Description: Cytotoxicity against human KG1a cells assessed as growth inhibition after 24 hrs by CellTiter Blue assay. Format: functional, cell-based. For orientation: The colour change of resazurin is a common sign of viable cells or microbes.
Another assay deals with HeLa. Description: Cytotoxicity against human HeLa cells assessed as growth inhibition after 72 hrs by MTT assay. Format: functional, cell-based.

Structures are written as SMILES.

Apoptosis regulator Bcl-2, sequence (P10415 whole entry): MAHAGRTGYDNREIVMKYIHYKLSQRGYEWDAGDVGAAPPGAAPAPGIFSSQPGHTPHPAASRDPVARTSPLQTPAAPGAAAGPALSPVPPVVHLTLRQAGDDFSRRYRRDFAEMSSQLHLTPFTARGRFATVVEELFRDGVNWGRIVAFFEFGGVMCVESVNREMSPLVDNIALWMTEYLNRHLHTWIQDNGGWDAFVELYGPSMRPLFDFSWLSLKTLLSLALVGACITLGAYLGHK

For `O=[N+]([O-])c1ccc(Nc2nnc(-c3c[nH]c4ccccc34)o2)cc1`, the concentration for half-maximal inhibition (IC50) in assay [1] is 3.83 µM; with MDA-MB-231, 3.54 µM; in the assay on Jurkat, 45 µM; with KG-1a it was 0.89 µM; in the assay on HeLa, 1.76 µM.

For the molecule `Fc1ccc(Nc2nnc(-c3c[nH]c4ccccc34)o2)cc1`, the IC50 in the assay with MDA-MB-231 was greater than 100 µM; in the assay with Jurkat, greater than 100 µM; with KG-1a, 21.1 µM; in the assay on HeLa, greater than 100 µM.

Turning to `Clc1ccc(Nc2nnc(-c3c[nH]c4ccccc34)o2)cc1Cl`, the IC50 in the assay on MDA-MB-231 is 31.1 µM; with Jurkat it was greater than 100 µM; in the assay with KG-1a, 45.3 µM; in the assay on HeLa, 19.3 µM.

For `Cc1ccc(Nc2nnc(-c3c[nH]c4ccccc34)o2)cc1`, the IC50 was 21.1 µM in assay [1]; 27.2 µM with MDA-MB-231; greater than 100 µM in the assay with Jurkat; 4 µM with KG-1a; 15.8 µM in the assay with HeLa.

As to `c1ccc(CNc2nnc(-c3c[nH]c4ccccc34)o2)cc1`, the concentration for half-maximal inhibition (IC50) in the assay with MDA-MB-231 is 6.47 µM; in the assay with Jurkat, greater than 100 µM; in the assay with KG-1a, greater than 100 µM; with HeLa, 7.81 µM.

For `COc1ccc(Nc2nnc(-c3c[nH]c4ccccc34)o2)cc1`, the half-inhibitory concentration (IC50) in assay [1] was 29 µM; in the assay on MDA-MB-231, 10.1 µM; in the assay on Jurkat, greater than 100 µM; with KG-1a, 0.82 µM; in the assay on HeLa it was 5.82 µM.

Consider `O=[N+]([O-])c1cccc(Nc2nnc(-c3c[nH]c4ccccc34)o2)c1`, for which the IC50 in the assay on MDA-MB-231 is 34.6 µM; in the assay with Jurkat it was greater than 100 µM; in the assay on KG-1a it was 25.5 µM; with HeLa it was 15.1 µM.

On to `O=[N+]([O-])c1ccccc1Nc1nnc(-c2c[nH]c3ccccc23)o1`, for which the IC50 in assay [1] amounted to 1.24 µM; in the assay on MDA-MB-231, 0.9 µM; in the assay on Jurkat, 30.2 µM; in the assay with KG-1a, 0.85 µM; in the assay with HeLa it was 0.3 µM.

Turning to `Clc1ccc(Nc2nnc(-c3c[nH]c4ccccc34)o2)cc1`, the IC50 stood at 9.77 µM with MDA-MB-231, 30.2 µM in the assay on Jurkat, 3.16 µM in the assay with KG-1a and 3.8 µM with HeLa.

For `Clc1cccc(Nc2nnc(-c3c[nH]c4ccccc34)o2)c1`, the IC50 in assay [1] is 0.66 µM; with MDA-MB-231, 8.89 µM; with Jurkat, greater than 100 µM; with KG-1a, 32.7 µM; in the assay with HeLa it was 5.6 µM.
